Measurements from patent US20260041620A1, “NOVEL AMINO ACID BASED SALTS, COMPOSITIONS AND METHODS FOR TREATING SKIN AND IMPROVING SKIN REJUVENATION AND LONGEVITY” (Sytheon Ltd, priority 2023, published 2026).
Where two headings read alike, the source gives them in different places.

Columns and labels:
HDAC10 = target: T1, HDAC10 (Homo sapiens, UniProt Q969S8)
T1 sequence (Q969S8 1-669): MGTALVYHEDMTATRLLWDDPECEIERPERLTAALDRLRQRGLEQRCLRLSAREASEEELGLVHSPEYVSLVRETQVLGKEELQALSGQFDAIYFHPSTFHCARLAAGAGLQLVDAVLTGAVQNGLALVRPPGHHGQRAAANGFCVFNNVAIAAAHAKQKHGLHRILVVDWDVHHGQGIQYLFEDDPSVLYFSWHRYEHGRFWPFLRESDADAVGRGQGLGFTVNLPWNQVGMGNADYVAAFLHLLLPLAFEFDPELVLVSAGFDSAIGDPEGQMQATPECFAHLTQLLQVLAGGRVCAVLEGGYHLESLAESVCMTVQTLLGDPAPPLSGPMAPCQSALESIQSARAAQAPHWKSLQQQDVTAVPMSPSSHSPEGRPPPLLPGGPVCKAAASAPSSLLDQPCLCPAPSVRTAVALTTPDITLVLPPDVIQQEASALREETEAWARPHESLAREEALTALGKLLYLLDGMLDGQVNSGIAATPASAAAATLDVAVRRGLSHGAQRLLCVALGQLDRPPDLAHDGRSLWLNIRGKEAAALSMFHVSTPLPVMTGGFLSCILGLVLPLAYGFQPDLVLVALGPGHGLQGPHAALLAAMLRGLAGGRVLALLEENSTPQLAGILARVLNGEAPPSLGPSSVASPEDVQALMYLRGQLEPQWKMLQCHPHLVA
Procedure: (§1) Test materials were stored at room temperature and stock solutions were prepared at 20 mg/ml in DMSO. Further dilutions were made in sterile distilled water immediately before being added to the reaction mixture containing a substrate, and the reaction was triggered by the addition of purified HDAC enzymes, Double distilled water was the negative control and trichostatin (1.5 ug/ml) was used as a positive control for validation of each study. The test procedure was as directed in the assay kits. The products of the reactions were measured by fluorometry at ex/em 350/450 nm using multi-well plate fluorometer Cytofluor 4000 (Applied Biosystem, Foster City, CA) or using SpectraMax i3× Multi-Mode Detection Platform from Molecular Devices (Sunnyvale, CA).
(§2) Statistical significance was assessed with a two-tail Student test. Deviations of ≤20% as compared to water control with p values below 0.05 were considered statistically significant.

HDAC1 = HDAC1 (Homo sapiens, UniProt Q13547); experiment: HDAC 1 fluorogenic assay kit
Procedure: as §1, §2

HDAC 8 = target: T2, HDAC 8 (Homo sapiens, UniProt Q9BY41)
T2 sequence (Q9BY41 1-377): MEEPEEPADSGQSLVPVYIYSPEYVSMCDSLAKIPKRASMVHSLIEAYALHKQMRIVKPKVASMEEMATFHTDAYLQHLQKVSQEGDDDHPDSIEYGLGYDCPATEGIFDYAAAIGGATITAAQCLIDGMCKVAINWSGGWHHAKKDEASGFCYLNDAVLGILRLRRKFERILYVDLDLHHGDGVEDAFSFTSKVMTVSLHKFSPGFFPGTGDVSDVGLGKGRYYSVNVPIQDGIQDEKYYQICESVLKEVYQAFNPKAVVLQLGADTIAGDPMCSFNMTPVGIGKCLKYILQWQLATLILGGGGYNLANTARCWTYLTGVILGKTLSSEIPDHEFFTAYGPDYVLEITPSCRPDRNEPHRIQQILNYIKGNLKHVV
Procedure: as §1, §2

FAAH = target: T3, FAAH (Homo sapiens, UniProt O00519); experiment: FAAH fluorescence-based inhibitory assay; type: biochemical
T3 sequence (O00519 1-579): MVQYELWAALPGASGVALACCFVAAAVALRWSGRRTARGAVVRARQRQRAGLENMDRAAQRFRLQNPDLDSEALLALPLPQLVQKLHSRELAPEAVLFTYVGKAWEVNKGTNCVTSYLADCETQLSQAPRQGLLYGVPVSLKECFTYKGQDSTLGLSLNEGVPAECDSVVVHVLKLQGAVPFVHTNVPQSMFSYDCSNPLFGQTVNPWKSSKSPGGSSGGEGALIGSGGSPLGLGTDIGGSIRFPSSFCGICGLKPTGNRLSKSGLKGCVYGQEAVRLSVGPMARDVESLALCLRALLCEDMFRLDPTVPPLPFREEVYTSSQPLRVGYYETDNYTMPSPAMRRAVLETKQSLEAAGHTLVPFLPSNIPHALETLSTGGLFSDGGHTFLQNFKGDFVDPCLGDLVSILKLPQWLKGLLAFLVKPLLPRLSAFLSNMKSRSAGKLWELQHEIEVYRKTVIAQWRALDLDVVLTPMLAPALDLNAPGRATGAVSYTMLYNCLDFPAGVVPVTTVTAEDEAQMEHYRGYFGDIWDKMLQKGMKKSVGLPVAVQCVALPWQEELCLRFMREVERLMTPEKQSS

MAGL = target: T4, MAGL (Homo sapiens, UniProt Q99685); experiment: MAGL inhibitory assay; type: biochemical
T4 construct: purchased Cayman 10007812
T4 sequence (Q99685 1-303): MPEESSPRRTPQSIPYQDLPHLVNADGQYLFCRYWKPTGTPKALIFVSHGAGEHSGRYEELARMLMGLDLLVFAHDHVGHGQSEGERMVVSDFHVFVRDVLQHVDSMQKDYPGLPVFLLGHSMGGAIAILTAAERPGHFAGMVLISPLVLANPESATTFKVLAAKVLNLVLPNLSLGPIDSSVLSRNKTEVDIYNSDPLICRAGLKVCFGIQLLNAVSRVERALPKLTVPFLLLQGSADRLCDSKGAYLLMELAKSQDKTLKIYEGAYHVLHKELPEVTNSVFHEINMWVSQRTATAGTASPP
Procedure: Each study was performed in duplicate and the results averaged.
The final concentration in each well was 10 μl of sample, 5.6 μM MAGL (Cayman Catalog #10007812) and 23.6 μM 2-Arachidonoyl Glycerol (Cayman catalog #62160).

HDAC2 = HDAC2 (Homo sapiens, UniProt Q92769)
Procedure: as §1, §2

HDAC 5 = HDAC 5 (Homo sapiens, UniProt Q9UQL6)
Procedure: as §1, §2

HDAC 9 = HDAC 9 (Homo sapiens, UniProt Q9UKV0)
Procedure: as §1, §2

HDAC 4 = HDAC 4 (Homo sapiens, UniProt P56524); experiment: HDAC 4 fluorogenic assay kit
Procedure: as §1, §2

FABP-5 = target: T5, FABP-5 (Homo sapiens, UniProt Q01469); experiment: FABP-5 ELISA inhibitory assay; type: biochemical
T5 construct: purchased Raybiotech 268-10276-1

FABP-3 = target: T6, FABP-3 (Homo sapiens, UniProt P05413); experiment: FABP-3 ELISA inhibitory assay; type: biochemical
T6 construct: purchased Neovateinbio PT-452
T6 sequence (P05413 whole entry): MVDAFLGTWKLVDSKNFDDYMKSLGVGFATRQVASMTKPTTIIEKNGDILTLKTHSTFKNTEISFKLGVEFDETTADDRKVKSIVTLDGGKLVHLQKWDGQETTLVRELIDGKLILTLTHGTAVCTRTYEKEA

HDAC1, sequence (Q13547 whole entry): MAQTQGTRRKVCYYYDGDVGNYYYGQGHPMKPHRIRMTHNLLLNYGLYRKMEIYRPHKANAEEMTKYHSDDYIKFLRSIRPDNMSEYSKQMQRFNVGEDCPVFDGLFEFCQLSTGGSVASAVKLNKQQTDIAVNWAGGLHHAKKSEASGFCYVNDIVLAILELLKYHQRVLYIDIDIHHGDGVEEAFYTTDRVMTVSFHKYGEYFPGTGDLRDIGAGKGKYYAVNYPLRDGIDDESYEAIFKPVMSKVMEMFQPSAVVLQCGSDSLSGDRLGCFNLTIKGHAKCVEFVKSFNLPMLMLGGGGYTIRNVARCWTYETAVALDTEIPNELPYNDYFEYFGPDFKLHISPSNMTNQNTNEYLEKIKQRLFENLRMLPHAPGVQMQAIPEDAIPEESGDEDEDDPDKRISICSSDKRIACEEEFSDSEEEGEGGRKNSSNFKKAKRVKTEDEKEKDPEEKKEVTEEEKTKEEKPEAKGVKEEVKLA
HDAC 9, sequence (Q9UKV0 whole entry): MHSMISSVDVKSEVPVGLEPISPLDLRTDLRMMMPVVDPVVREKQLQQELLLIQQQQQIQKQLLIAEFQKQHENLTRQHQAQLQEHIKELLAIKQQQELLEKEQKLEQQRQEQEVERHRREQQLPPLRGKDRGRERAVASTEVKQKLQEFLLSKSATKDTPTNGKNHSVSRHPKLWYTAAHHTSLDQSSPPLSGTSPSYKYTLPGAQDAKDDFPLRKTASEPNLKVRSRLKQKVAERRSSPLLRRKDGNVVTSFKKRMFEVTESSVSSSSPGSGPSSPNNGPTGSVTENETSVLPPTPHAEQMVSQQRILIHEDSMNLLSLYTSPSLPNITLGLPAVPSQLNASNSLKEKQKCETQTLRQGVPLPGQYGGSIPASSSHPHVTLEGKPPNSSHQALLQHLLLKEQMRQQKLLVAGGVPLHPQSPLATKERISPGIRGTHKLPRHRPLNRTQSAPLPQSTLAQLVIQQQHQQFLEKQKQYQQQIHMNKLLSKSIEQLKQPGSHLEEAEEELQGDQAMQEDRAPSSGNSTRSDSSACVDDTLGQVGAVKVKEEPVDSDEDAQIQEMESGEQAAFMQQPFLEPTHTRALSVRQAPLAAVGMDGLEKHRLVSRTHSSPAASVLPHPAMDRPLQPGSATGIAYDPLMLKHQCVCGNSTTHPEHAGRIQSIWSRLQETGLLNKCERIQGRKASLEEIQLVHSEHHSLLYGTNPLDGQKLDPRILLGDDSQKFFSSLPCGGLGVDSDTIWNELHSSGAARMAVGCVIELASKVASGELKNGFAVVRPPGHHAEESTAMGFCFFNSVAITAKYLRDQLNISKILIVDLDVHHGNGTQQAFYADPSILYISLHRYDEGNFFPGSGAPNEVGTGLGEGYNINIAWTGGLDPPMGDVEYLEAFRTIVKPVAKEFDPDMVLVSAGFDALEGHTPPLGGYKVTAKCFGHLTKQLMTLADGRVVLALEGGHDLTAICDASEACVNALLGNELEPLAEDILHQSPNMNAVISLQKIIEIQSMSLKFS
HDAC2, sequence (Q92769 whole entry): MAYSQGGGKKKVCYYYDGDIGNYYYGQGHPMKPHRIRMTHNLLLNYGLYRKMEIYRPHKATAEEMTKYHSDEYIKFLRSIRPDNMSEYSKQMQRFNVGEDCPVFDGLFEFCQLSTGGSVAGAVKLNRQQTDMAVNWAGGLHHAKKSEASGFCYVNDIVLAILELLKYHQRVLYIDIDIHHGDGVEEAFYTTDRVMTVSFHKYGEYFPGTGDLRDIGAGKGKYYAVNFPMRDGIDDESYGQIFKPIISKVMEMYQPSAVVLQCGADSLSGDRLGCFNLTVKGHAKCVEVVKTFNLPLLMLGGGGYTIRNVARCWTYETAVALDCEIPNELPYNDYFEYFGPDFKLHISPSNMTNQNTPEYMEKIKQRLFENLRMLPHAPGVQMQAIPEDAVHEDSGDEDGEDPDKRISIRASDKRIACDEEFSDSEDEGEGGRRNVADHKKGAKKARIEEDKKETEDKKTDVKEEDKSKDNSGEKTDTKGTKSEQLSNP
HDAC 4, sequence (P56524 whole entry): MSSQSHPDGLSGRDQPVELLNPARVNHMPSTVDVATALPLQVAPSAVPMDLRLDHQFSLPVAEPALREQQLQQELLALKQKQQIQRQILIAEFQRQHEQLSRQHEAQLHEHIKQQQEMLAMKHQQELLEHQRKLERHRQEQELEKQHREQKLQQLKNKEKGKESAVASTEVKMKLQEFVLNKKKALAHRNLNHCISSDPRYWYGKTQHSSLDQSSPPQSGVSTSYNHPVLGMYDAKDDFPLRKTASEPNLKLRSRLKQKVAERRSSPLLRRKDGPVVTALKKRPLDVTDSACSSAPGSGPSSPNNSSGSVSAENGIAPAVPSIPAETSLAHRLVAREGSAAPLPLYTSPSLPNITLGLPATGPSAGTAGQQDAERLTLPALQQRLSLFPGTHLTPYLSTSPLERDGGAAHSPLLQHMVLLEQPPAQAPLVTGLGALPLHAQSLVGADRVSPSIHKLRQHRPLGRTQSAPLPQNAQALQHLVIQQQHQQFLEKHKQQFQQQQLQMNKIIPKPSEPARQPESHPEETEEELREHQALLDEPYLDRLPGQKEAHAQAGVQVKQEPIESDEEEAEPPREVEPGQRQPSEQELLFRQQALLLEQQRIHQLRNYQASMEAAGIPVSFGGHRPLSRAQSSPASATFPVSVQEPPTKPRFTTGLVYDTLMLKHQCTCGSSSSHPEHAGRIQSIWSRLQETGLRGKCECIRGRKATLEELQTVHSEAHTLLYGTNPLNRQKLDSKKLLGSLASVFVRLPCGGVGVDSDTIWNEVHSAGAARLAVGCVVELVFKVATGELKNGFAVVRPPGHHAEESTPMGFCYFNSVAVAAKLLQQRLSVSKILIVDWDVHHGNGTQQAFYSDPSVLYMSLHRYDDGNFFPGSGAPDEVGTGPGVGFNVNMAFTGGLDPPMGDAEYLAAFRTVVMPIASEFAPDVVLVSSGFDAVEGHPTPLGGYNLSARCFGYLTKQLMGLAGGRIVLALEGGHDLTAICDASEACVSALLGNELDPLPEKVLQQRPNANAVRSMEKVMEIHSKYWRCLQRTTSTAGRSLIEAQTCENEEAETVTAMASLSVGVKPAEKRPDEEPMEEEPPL
HDAC 5, sequence (Q9UQL6 whole entry): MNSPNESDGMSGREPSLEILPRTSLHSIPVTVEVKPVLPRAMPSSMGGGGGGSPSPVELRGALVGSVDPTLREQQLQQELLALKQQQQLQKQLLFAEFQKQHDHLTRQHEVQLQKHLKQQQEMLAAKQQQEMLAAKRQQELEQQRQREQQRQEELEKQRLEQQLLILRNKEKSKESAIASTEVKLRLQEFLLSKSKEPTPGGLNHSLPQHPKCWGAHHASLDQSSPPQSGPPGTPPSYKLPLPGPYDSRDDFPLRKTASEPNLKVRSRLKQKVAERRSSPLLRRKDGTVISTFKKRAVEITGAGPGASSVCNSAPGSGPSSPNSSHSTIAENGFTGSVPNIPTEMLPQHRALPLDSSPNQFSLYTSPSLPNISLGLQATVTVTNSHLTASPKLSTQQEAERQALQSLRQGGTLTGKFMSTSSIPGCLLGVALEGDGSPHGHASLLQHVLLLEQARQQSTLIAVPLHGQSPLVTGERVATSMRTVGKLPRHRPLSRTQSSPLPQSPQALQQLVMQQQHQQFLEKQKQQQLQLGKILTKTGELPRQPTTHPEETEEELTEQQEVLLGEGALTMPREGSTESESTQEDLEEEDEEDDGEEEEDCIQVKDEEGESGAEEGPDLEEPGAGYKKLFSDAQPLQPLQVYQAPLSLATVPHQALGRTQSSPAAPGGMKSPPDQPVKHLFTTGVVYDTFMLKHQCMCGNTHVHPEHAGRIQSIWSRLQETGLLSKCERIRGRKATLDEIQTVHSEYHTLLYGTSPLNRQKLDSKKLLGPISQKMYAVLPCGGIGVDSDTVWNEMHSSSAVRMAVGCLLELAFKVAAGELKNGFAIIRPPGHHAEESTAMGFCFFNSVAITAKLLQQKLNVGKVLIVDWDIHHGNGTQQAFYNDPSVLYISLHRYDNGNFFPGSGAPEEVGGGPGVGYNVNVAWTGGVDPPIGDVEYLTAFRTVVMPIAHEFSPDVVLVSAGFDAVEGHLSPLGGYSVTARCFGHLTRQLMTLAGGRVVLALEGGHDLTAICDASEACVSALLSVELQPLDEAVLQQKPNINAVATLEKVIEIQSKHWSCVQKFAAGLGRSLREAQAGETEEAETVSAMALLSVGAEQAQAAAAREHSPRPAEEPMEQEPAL
T5 sequence (Q01469 whole entry): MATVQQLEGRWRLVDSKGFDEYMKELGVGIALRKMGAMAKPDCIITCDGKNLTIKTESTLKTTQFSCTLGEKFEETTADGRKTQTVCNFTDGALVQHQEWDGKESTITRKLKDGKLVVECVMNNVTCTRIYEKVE

Row | SMILES | HDAC 10 activity, % of water-treated controls (HDAC10; 50 ug/ml) [%] | HDAC 10 activity, % of water-treated controls (HDAC10; 100 ug/ml) [%] | HDAC 10 activity, % of water-treated controls (HDAC10; 200 ug/ml) [%] | HDAC 8 activity, % of water-treated controls (HDAC 8; 50 ug/ml) [%] | HDAC 8 activity, % of water-treated controls (HDAC 8; 100 ug/ml) [%] | HDAC 8 activity, % of water-treated controls (HDAC 8; 200 ug/ml) [%] | HDAC 2 activity, % of water-treated controls (HDAC2; 50 ug/ml) [%] | HDAC 2 activity, % of water-treated controls (HDAC2; 100 ug/ml) [%] | HDAC 2 activity, % of water-treated controls (HDAC2; 200 ug/ml) [%] | HDAC 5 activity, % of water-treated controls (HDAC 5; 50 ug/ml) [%] | HDAC 5 activity, % of water-treated controls (HDAC 5; 100 ug/ml) [%] | HDAC 5 activity, % of water-treated controls (HDAC 5; 200 ug/ml) [%] | HDAC 9 activity, % of water-treated controls (HDAC 9; 50 ug/ml) [%] | HDAC 9 activity, % of water-treated controls (HDAC 9; 100 ug/ml) [%] | HDAC 9 activity, % of water-treated controls (HDAC 9; 200 ug/ml) [%] | further results
1 | CCCC(=O)[O-].[Na+] [Sodium butyrate, reference compound] | 100 | 103 | 93 | 25 | 20 | 20 | 89 | 93 | 94 | 38 | 26 | 15 | 55 | 53 | 57 | HDAC 10 activity, % of water-treated controls (HDAC10; 400 ug/ml): 61%; HDAC 1 activity, % of water-treated controls (HDAC1; 50 ug/ml): 109%; HDAC 1 activity, % of water-treated controls (HDAC1; 100 ug/ml): 46%; HDAC 1 activity, % of water-treated controls (HDAC1; 200 ug/ml): 39%; HDAC 1 activity, % of water-treated controls (HDAC1; 400 ug/ml): 38%; HDAC 8 activity, % of water-treated controls (HDAC 8; 400 ug/ml): 14%; IC50 (FAAH): 7.31 mM; IC50 (MAGL): 5.5 mM; HDAC 2 activity, % of water-treated controls (HDAC2; 400 ug/ml): 95%; HDAC 5 activity, % of water-treated controls (HDAC 5; 400 ug/ml): 11%; HDAC 9 activity, % of water-treated controls (HDAC 9; 400 ug/ml): 58%; HDAC 4 activity, % of water-treated controls (HDAC 4; 25 ug/ml): 93%; HDAC 4 activity, % of water-treated controls (HDAC 4; 50 ug/ml): 96%; HDAC 4 activity, % of water-treated controls (HDAC 4; 100 ug/ml): 96%
2 | CCCC(=O)N[C@@H](CC(C)C)C(=O)[O-].CCCC(=O)N[C@@H](CC(C)C)C(=O)[O-].[Zn+2] [Zn di-(n-butyryl leucinate), Zinc di-(n-butyryl leucinate)] | 10 | 8 | 6 | 16 | 16 | 14 | 37 | 31 | 28 | 91 | 50 | 26 | 44 | 30 | 22 | HDAC 10 activity, % of water-treated controls (HDAC10; 5 ug/ml): 21%; HDAC 10 activity, % of water-treated controls (HDAC10; 25 ug/ml): 13%; HDAC 8 activity, % of water-treated controls (HDAC 8; 5 ug/ml): 7%; HDAC 8 activity, % of water-treated controls (HDAC 8; 25 ug/ml): 16%; FAAH IC50 (FAAH): 41.3 µg/mL; FABP-5 IC50 (FABP-5): 390.5 µg/mL; MAGL IC50 (MAGL): 88.3 µg/mL; HDAC 2 activity, % of water-treated controls (HDAC2; 25 ug/ml): 39%; HDAC 5 activity, % of water-treated controls (HDAC 5; 25 ug/ml): 128%; HDAC 9 activity, % of water-treated controls (HDAC 9; 5 ug/ml): 15%; HDAC 9 activity, % of water-treated controls (HDAC 9; 25 ug/ml): 49%; FABP-3 IC50 (FABP-3): 630.9 µg/mL
